Data taken from US7691382B2, “Antiviral polypeptides comprising tandem repeats of APOE 141-149 and variants thereof” (priority 2003, dated 2010).
Values joined by “and” are separate entries in the source; they are usually repeats but may differ in a detail not shown here. Equal entries are not always repeated. Where two headings read alike, the source gives them in different places. One block for each compound: values may come before it. Peptide text beside a SMILES is read from it.

Legend:
HSV1 [1] = test: HSV1 plaque formation in Vero cells (Example 1); type: cell-based, Human herpes simplex virus type 1; settings: for HSV1 plaque formation in Vero cells, plaque count, wells 1-4: 1 hour, listed as ApoE141-149dp; for HSV1 plaque formation in Vero cells, Mean ± sd: untreated 107 ± 14.2
Procedure: FIG. 1 and table 1 show typical results for the test for anti-HSV1 activity. The assay involved treating confluent Vero cells in 24-well plates with medium containing virus and varying amounts of peptide for one hour, followed by removal of this inoculum, and addition of viscous ‘overlay’ medium, containing 0.2% high viscosity carboxymethylcellulose. The overlay medium only allows infection of those cells immediately adjacent to an infected cell. After 2 days incubation and then fixation and staining, small patches of infected cells (or ‘plaques’) are visible, which are counted. Each of these corresponds to the infection of a single cell during the one hour inoculation. ApoE141-149dp produced a 40% reduction in plaque number at a concentration of around 20 μM. Note the peptide was only present in the experimental system for 1 hour.

HSV2 = HSV2 plaque formation in HEp-2 cells (Example 1); type: cell-based, Human herpes simplex virus type 2; settings: for HSV2 plaque formation in HEp-2 cells, plaque count, wells 1-4: 1 hour, listed as ApoE141-149dp; for HSV2 plaque formation in HEp-2 cells, Mean ± sd: untreated 152 ± 10.7
Procedure: FIG. 2 and table 2 show typical results for the test for anti-HSV2 activity. The assay was carried out as for the anti-HSV1 assay, except Hep-2 cells were used rather than Vero cells. ApoE141-149dp produced a 50% reduction in plaque number at a concentration of around 20 μM. Again note that the peptide was only present in the experimental system for 1 hour.

HSV1 [2] = type: cell-based, Human herpes simplex virus type 1
Summary of the method: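 Plaque reduction in Vero monolayers: ~100 pfu HSV1 pre-mixed 10 min at 37 °C with acetylated/amidated peptides in 0.5% FCS medium, inoculated 60–80 min, then carboxymethylcellulose overlay for 22 or 40 h. Plaques counted after fixing and carbol fuchsin staining; IC50 from % of control versus peptide concentration.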

HIV-1 = settings: for % Decrease in HIV p24 Production, Exp. 1-3: listed as ApoE141-149dp
Procedure: The assay was carried out by incubating HIV infected U937 cells in the presence of various levels of peptide for 7 days, followed by assay for levels of the HIV protein p24 in the cells using an Enzyme Linked Immunoabsorbant Assay (ELISA) technique.

HSV2 clinical isolates = type: cell-based, Human herpes simplex virus type 2
Procedure: Plaque assays were performed. The methodology was as described in previous Examples for HSV1 plaque assays (including usage of Vero cells) except HSV2 clinical isolates (provided by Prof. Anthony Hart of Liverpool University) were employed instead.

[3] = at a concentration of around 20 μM, peptide present 1 hour
[4] = peptide 10 μM in virus inoculum
[5] = peptide 20 μM in virus inoculum
[6] = peptide 30 μM in virus inoculum
[7] = peptide 40 μM in virus inoculum
[8] = peptide 10 μM, U937 cells, 7 days
[9] = peptide 20 μM, U937 cells, 7 days
[10] = peptide 30 μM, U937 cells, 7 days
[11] = peptide 40 μM, U937 cells, 7 days
[12] = peptide 50 μM, U937 cells, 7 days

Structure (SMILES): CC(C)C[C@H](NC(=O)[C@H](CC(C)C)NC(=O)[C@H](CCCNC(=N)N)NC(=O)[C@H](CCCCN)NC(=O)[C@H](CCCNC(=N)N)NC(=O)[C@H](CC(C)C)NC(=O)[C@H](CCCCN)NC(=O)[C@H](CCCNC(=N)N)NC(=O)[C@H](CC(C)C)NC(=O)[C@H](CC(C)C)NC(=O)[C@H](CC(C)C)NC(=O)[C@H](CCCNC(=N)N)NC(=O)[C@H](CCCCN)NC(=O)[C@H](CCCNC(=N)N)NC(=O)[C@H](CC(C)C)NC(=O)[C@H](CCCCN)NC(=O)[C@H](CCCNC(=N)N)NC(=O)[C@@H](N)CC(C)C)C(=O)O [GIN 1] (H-LRKLRKRLLLRKLRKRLL-OH)
- reduction in plaque number (HSV1) (HSV1 [1]; [3]): 40%
- HSV1 plaque formation in Vero cells, plaque count, wells 1-4 (HSV1 [1]; peptide 5 μM in virus inoculum): 129 and 106 and 103 and 100
- HSV1 plaque formation in Vero cells, Mean ± sd (HSV1 [1]; peptide 5 μM): 110 ± 13.2
- HSV1 plaque formation in Vero cells, plaque count, wells 1-4 (HSV1 [1]; [4]): 73 and 87 and 76 and 89
- HSV1 plaque formation in Vero cells, Mean ± sd (HSV1 [1]; peptide 10 μM): 81 ± 7.9
- HSV1 plaque formation in Vero cells, plaque count, wells 1-4 (HSV1 [1]; [5]): 68 and 67 and 63
- HSV1 plaque formation in Vero cells, Mean ± sd (HSV1 [1]; peptide 20 μM): 65 ± 2.6
- HSV1 plaque formation in Vero cells, plaque count, wells 1-4 (HSV1 [1]; [6]): 72 and 71 and 56
- HSV1 plaque formation in Vero cells, Mean ± sd (HSV1 [1]; peptide 30 μM): 66 ± 9.0
- HSV1 plaque formation in Vero cells, plaque count, wells 1-4 (HSV1 [1]; [7]): 64 and 65 and 53 and 68
- HSV1 plaque formation in Vero cells, Mean ± sd (HSV1 [1]; peptide 40 μM): 63 ± 6.6
- reduction in plaque number (HSV2) (HSV2; [3]): 50%
- HSV2 plaque formation in HEp-2 cells, plaque count, wells 1-4 (HSV2; peptide 5 μM in virus inoculum): 160 and 134 and 140 and 130
- HSV2 plaque formation in HEp-2 cells, Mean ± sd (HSV2; peptide 5 μM): 141 ± 13.3
- HSV2 plaque formation in HEp-2 cells, plaque count, wells 1-4 (HSV2; [4]): 125 and 113 and 131 and 132
- HSV2 plaque formation in HEp-2 cells, Mean ± sd (HSV2; peptide 10 μM): 125 ± 8.7
- HSV2 plaque formation in HEp-2 cells, plaque count, wells 1-4 (HSV2; [5]): 82 and 72 and 73 and 81
- HSV2 plaque formation in HEp-2 cells, Mean ± sd (HSV2; peptide 20 μM): 77 ± 5.2
- HSV2 plaque formation in HEp-2 cells, plaque count, wells 1-4 (HSV2; [6]): 76 and 77 and 71 and 72
- HSV2 plaque formation in HEp-2 cells, Mean ± sd (HSV2; peptide 30 μM): 74 ± 2.9
- HSV2 plaque formation in HEp-2 cells, plaque count, wells 1-4 (HSV2; [7]): 51 and 59 and 69 and 49
- HSV2 plaque formation in HEp-2 cells, Mean ± sd (HSV2; peptide 40 μM): 57 ± 9.1
- IC50 (HSV1 [2]): 16.5 µM
- efficacy for reducing HSV1 infectivity (in words) (HSV1 [2]; Examples 2 and 3): good efficacy
- activity against HIV, significance by ANOVA (in words) (HIV-1; FIG. 3, acutely infected U937 cells): significantly active
- reduction in infectivity (HIV) (HIV-1; at 20 μM, U937 cells, 7 days): 95%
- % Decrease in HIV p24 Production, Mean ± sd (HIV-1; [8]): 83.94 ± 11.84%
- % Decrease in HIV p24 Production, Exp. 1-3 (HIV-1; [8]): 91.66% and 70.31% and 89.85%
- % Decrease in HIV p24 Production, Mean ± sd (HIV-1; [9]): 95.02 ± 1.89%
- % Decrease in HIV p24 Production, Exp. 1-3 (HIV-1; [9]): 96.87% and 95.08% and 93.10%
- % Decrease in HIV p24 Production, Mean ± sd (HIV-1; [10]): 90.78 ± 4.49%
- % Decrease in HIV p24 Production, Exp. 1-3 (HIV-1; [10]): 95.94% and 88.63% and 87.77%
- % Decrease in HIV p24 Production, Mean ± sd (HIV-1; [11]): 95.87 ± 0.81%
- % Decrease in HIV p24 Production, Exp. 1-3 (HIV-1; [11]): 96.80% and 95.47% and 95.33%
- % Decrease in HIV p24 Production, Mean ± sd (HIV-1; [12]): 94.79 ± 1.34%
- % Decrease in HIV p24 Production, Exp. 1-3 (HIV-1; [12]): 95.73% and 93.25% and 95.38%

- IC50 (HSV1 [2]): > 20 µM
- IC50 (HSV2 clinical isolates): 16 µM
Structure (SMILES): CC(=O)N[C@@H](CC(C)C)C(=O)N[C@@H](CCCNC(=N)N)C(=O)N[C@@H](CCCCN)C(=O)N[C@@H](CC(C)C)C(=O)N[C@@H](CCCNC(=N)N)C(=O)N[C@@H](CCCCN)C(=O)N[C@@H](CCCNC(=N)N)C(=O)N[C@@H](CC(C)C)C(=O)N[C@@H](CC(C)C)C(=O)N[C@@H](CC(C)C)C(=O)N[C@@H](CCCNC(=N)N)C(=O)N[C@@H](CCCCN)C(=O)N[C@@H](CC(C)C)C(=O)N[C@@H](CCCNC(=N)N)C(=O)N[C@@H](CCCCN)C(=O)N[C@@H](CCCNC(=N)N)C(=O)N[C@@H](Cc1c[nH]c2ccccc12)C(=O)N[C@@H](Cc1c[nH]c2ccccc12)C(N)=O [MU 112] (Ac-LRKLRKRLLLRKLRKRWW-NH2)

- IC50 (HSV1 [2]): 18.5 µM
- IC50 (HSV2 clinical isolates): 11.8 µM
Structure (SMILES): CC(=O)N[C@@H](CC(C)C)C(=O)N[C@@H](CCCNC(=N)N)C(=O)N[C@@H](CCCCN)C(=O)N[C@@H](CC(C)C)C(=O)N[C@@H](CCCNC(=N)N)C(=O)N[C@@H](CCCCN)C(=O)N[C@@H](CCCNC(=N)N)C(=O)N[C@@H](CC(C)C)C(=O)N[C@@H](CC(C)C)C(=O)N[C@@H](Cc1c[nH]c2ccccc12)C(=O)N[C@@H](CCCNC(=N)N)C(=O)N[C@@H](CCCCN)C(=O)N[C@@H](Cc1c[nH]c2ccccc12)C(=O)N[C@@H](CCCNC(=N)N)C(=O)N[C@@H](CCCCN)C(=O)N[C@@H](CCCNC(=N)N)C(=O)N[C@@H](CC(C)C)C(=O)N[C@@H](CC(C)C)C(N)=O [MU 113] (Ac-LRKLRKRLLWRKWRKRLL-NH2)
